# According to PMC7925398, “Exploring the Therapeutic Potenital of the Leaderless Enterocins K1 and EJ97 in the Treatment of Vancomycin-Resistant Enterococcal Infection” (Frontiers in Microbiology, 2021):
# Like-named read-outs stand apart in the source and are kept apart here. Where a SMILES comes first, the peptide text is derived from it. Where no end group is shown, it is not given here.
# Tests used:
# [1] = Antibacterial effect (MIC) after incubation in blood, plasma or saline; type: cell-based; conditions: for MIC in blood: 1 mg/ml added to whole human blood (EDTA); for MIC in plasma after 8 h / MIC in plasma at 48 h: human plasma; for MIC in plasma after 8 h / MIC in saline after 8 h / MIC in blood after 8 h: 8 h incubation at 37°C; for MIC in plasma at 48 h / MIC in saline at 48 h / MIC in blood at 48 h: 48 h incubation at 37°C; for MIC in blood after 8 h / MIC in blood at 48 h: whole human blood (EDTA), 1 mg/ml; for MIC in blood compared to saline (fold higher): whole human blood vs saline
# Description: To test whether the antibacterial effect of the bacteriocins was reduced in blood, an assay was performed where whole blood was collected from two healthy volunteers, with EDTA as an anticoagulant. Directly after blood sampling each bacteriocin was added to a concentration of 1mg/ml. […] Samples were collected at specific time points and bacteriocin activity was determined using the standard MIC assay as previously described ([Holo et al., 1991]). The experiment was repeated three times and the error bars represent the standard deviation.
# The presented MIC values are the average of three experiments. Each bacteriocin was added to whole human blood to reach a concentration of 1 mg/ml. […] RT is short for room temperature.
# human erythrocytes = assay: Haemolysis assay; conditions: for Visual haemolysis (redness of supernatant compared to saline): 1 mg/ml in saline; for Visual haemolysis (redness of supernatant compared to saline) / Haemolysis of erythrocytes: 37°C; for Haemolysis of erythrocytes: 0.01, 0.1 and 1 mg/ml in saline, washed human erythrocytes (two volunteers, pooled), 1 h, supernatant absorbance 540 nm, repeated three times
# Description: To assess the haemolytic effect whole blood was drawn from two healthy human volunteers, pooled and distributed in 1 ml aliquots. The aliquots were spun down at 1,000 × g for 5 min at 4°C to separate erythrocytes from plasma. The erythrocytes were washed three times with saline (0.9% NaCl) and resuspended in 100 μl saline. […] SDS in saline was added as a control, since bacteriocins were solved in saline. The samples were incubated at 37°C for 1 h and then spun down again to remove intact erythrocytes. The supernatant was measured for absorbance at 540 nm in order to measure degree of haemolysis. […] The experiment was repeated three times to allow for statistical analysis.
# Whole human blood was mixed with each bacteriocin in saline to a final concentration of 1, 0.1, and 0.01 mg/ml. The samples were incubated at 37°C before the erythrocytes were spun down and the supernatant was read at OD540.
# [2] = tested on: E. faecium LMGT 20705 and E. faecium 42 ACA-D6 0237; assay: Effect of autoclaving on antibacterial activity, E. faecium; type: cell-based, Enterococcus faecium; conditions: in MilliQ water with 0.1% TFA, standard autoclaving; MIC against E. faecium LMGT 20705 and 42 ACA-D6 0237
# Description: (§1) A pre-requisite for intravenous administration is complete sterility of the compound ([Paese et al., 2017]). The simplest manner to achieve this is through autoclaving. However, this can cause degradation of the compound and therefore be detrimental to the antibacterial effect. Also, if the compound is degraded into unknown constituents this may cause unintended interactions. Therefore, we exposed the bacteriocins to a standard autoclaving procedure.
# (§2) Each bacteriocin was solved in MilliQ water with 0.1% TFA and then autoclaved. […] Strains: 20705 is short for E. faecium LMGT 20705; 0237 for E. faecium 42 ACA-D6 0237; D6 for E. faecalis D6; and MMH594 for E. faecalis MMH594.
# [3] = tested on: bacteriocin-resistant enterococcal cells (eep-mutants); conditions: colonies from inhibition zones of spot-on-lawn assay; 'mostly above'; cross-resistant
# Description: Bacteriocin resistant mutants were obtained by a spot-on-lawn assay, where liquid bacteriocin was spotted on a lawn of indicator cells, using 10μl of bacteriocin in concentrations 0.5–5 mg/ml. The plates were incubated at 30°C overnight and resistant colonies were selected from the inhibition zones and re-streaked on new plates for isolated colonies. Pure cultures were made and stored in 15% glycerol at −80°C. The eep gene was PCR amplified and sequenced with specific primers: eep in E. faecium was amplified using primers Eepf4F + Eepf4R and sequenced using primers Eepf1R - Eepf6R and Eepf1F - Eepf6F. eep in E. faecalis was amplified using primers Eepfa1R + Eepfa3F and sequenced using primers Eepfa1R - Eepfa3R, Eepf1R - Eepf3R and Eepfa1F - Eepfa3F.
# The samples were sent to GATC Biotech, Germany for sequencing. MIC of the resistant mutants was scored using a microtiter assay as previously described ([Holo et al., 1991]).
# E. faecium = conditions: three parallels
# Description: (§3) Unless otherwise specified the bacterial strains were grown in brain heart infusion (BHI) medium (Oxoid) at 37°C under aerobic conditions without shaking.
# (§4) The peptides were stored at −20°C until use. The amino acid sequences of the bacteriocins are […] RPVA and […] […] Bacteriocin activity was determined using a microtiter assay as previously described ([Holo et al., 1991]).
# [4] = tested on: E. faecium wildtype and eep-mutant strains; assay: Lysozyme tolerance MIC assay; type: cell-based, Enterococcus faecium
# Description: To test for lysozyme tolerance the wild type and mutant strains were grown over night and subjected to a standard MIC assay as previously described with twofold dilutions of lysozyme ([Holo et al., 1991]). In addition, a spot-on-lawn assay was performed with 10 μl 250 mg/ml lysozyme spotted on a lawn of cells.
# [5] = tested on: E. faecalis D6 and E. faecalis MMH594; assay: Effect of autoclaving on antibacterial activity, E. faecalis; type: cell-based, Enterococcus faecalis; conditions: in MilliQ water with 0.1% TFA, standard autoclaving; MIC against E. faecalis D6 and MMH594
# Description: as §1, §2
# E. faecalis = conditions: MIC = at least 50% growth inhibition, three parallels
# Description: as §3, §4
# [6] = starting value (time not given), average of three experiments
molecule,measurement,setting,value
"CC1(C)S[C@@H]2[C@H](NC(=O)[C@H](N)c3ccccc3)C(=O)N2[C@H]1C(=O)O [Ampicillin, reference compound]",MIC in blood,[1]; [6],1.56 µg/mL
same,Loss of activity after 48 h incubation,[1]; 48 h incubation at 37°C in blood and similar conditions,fourfold
"CC[C@H](C)[C@H](NC(=O)[C@H](CCC(=O)O)NC(=O)[C@H](Cc1ccc(O)cc1)NC(=O)[C@H](CCC(N)=O)NC(=O)[C@@H](NC(=O)[C@H](CC(C)C)NC(=O)[C@H](CCCCN)NC(=O)[C@H](CCCCN)NC(=O)[C@@H](NC(=O)[C@@H](NC(=O)[C@@H](NC(=O)CNC(=O)[C@@H](NC(=O)[C@@H]1CCCN1C(=O)[C@H](CC(N)=O)NC(=O)[C@H](Cc1ccccc1)NC(=O)[C@H](CCCCN)NC(=O)[C@H](Cc1ccccc1)NC(=O)[C@H](CCCCN)NC(=O)[C@@H](N)CCSC)[C@@H](C)O)[C@@H](C)O)[C@@H](C)CC)C(C)C)[C@@H](C)O)C(=O)N[C@@H](C)C(=O)N[C@@H](Cc1c[nH]c2ccccc12)C(=O)N[C@@H](Cc1ccccc1)C(=O)N[C@@H](CCCCN)C(=O)N[C@@H](CC(N)=O)C(=O)N[C@@H](CCCCN)C(=O)N[C@@H](Cc1c[nH]cn1)C(=O)NCC(=O)N[C@@H](Cc1ccc(O)cc1)C(=O)N[C@@H](Cc1ccc(O)cc1)C(=O)N1CCC[C@H]1C(=O)N[C@@H](Cc1c[nH]c2ccccc12)C(=O)N[C@@H](CCC(=O)O)C(=O)N[C@H](C(=O)N1CCC[C@H]1C(=O)N[C@@H](CCCNC(=N)N)C(=O)N[C@@H](CS)C(=O)O)[C@@H](C)CC [EntK1, enterocin K1] (H-MKFKFNPTGTIVKKLTQYEIAWFKNKHGYYPWEIPRC-OH; N-terminus and C-terminus assumed)",MIC in blood,[1]; [6],0.78 µg/mL
same,MIC in saline,"[1]; 1 mg/ml in saline, first value (time not given), indicator strain not stated, average of three experiments",0.19 µg/mL
same,MIC in plasma,"[1]; added to human plasma, starting value (time not given), average of three experiments",0.78 µg/mL
same,MIC in plasma after 8 h,[1]; average of three experiments,0.78 µg/mL
same,MIC in plasma at 48 h,[1]; average of three experiments,1.56 µg/mL
same,MIC in saline after 8 h,[1]; average of three experiments,stayed at the same level
same,MIC in saline at 48 h,[1]; average of three experiments,0.39 µg/mL
same,MIC ratio blood to plasma,"[1]; same at all time points, 37°C",2 ×
same,MIC ratio plasma to saline,"[1]; same at all time points, 37°C",2 ×
same,MIC in blood after 8 h,[1]; average of three experiments,approximately 1.56 μg/ml
same,MIC in blood at 48 h,[1]; average of three experiments,3.125 µg/mL
same,MIC in blood compared to saline (fold higher),[1]; 37°C,4 ×
same,Visual haemolysis (redness of supernatant compared to saline),human erythrocytes,did not cause haemolysis
same,Haemolysis of erythrocytes,human erythrocytes,non-haemolytic
same,Effect of autoclaving on MIC,[2],did not affect
same,MIC against cells from resistant colonies,[3],above 25 μg/ml
same,MIC of EntK1,"E. faecium; strain E1469 (N, nosocomial), MIC = at least 50% growth inhibition",0.39 µg/mL
same,MIC of EntK1,"E. faecium; strain E3160 (N, nosocomial), MIC = at least 50% growth inhibition",0.39 µg/mL
same,MIC of EntK1,"E. faecium; strain E3449 (N, nosocomial), MIC = at least 50% growth inhibition",0.39 µg/mL
same,MIC of EntK1,"E. faecium; strain E6072 (N, nosocomial), MIC = at least 50% growth inhibition",0.19 µg/mL
same,MIC of EntK1,"E. faecium; strain E6094 (N, nosocomial), MIC = at least 50% growth inhibition",0.39 µg/mL
same,MIC of EntK1,"E. faecium; strain E6856 (N, nosocomial), MIC = at least 50% growth inhibition",0.39 µg/mL
same,MIC of EntK1,"E. faecium; strain E7195 (N, nosocomial), MIC = at least 50% growth inhibition",0.39 µg/mL
same,MIC of EntK1,"E. faecium; strain E7422 (N, nosocomial), MIC = at least 50% growth inhibition",0.19 µg/mL
same,MIC of EntK1,"E. faecium; strain E7660 (N, nosocomial), MIC = at least 50% growth inhibition",0.39 µg/mL
same,MIC of EntK1,"E. faecium; strain E8150 (N, nosocomial), MIC = at least 50% growth inhibition",0.78 µg/mL
same,MIC of EntK1,"E. faecium; strain LMGT 20705 (L, laboratory), MIC = at least 50% growth inhibition",<0.048 µg/mL
same,MIC of EntK1,"E. faecium; strain P21 (L, laboratory), MIC = minimum concentration inhibiting growth by at least 50% vs control, 200 μl culture",<0.048 µg/mL
"CCCCCCCCCCCCOS(=O)(=O)[O-].[Na+] [SDS, reference compound]",Visual haemolysis (redness of supernatant),human erythrocytes,complete haemolysis
Lysozyme,Lysozyme MIC,"[4]; E. faecium 7422c.522del (M, eep-mutant)",1.95 mg/mL
same,Lysozyme MIC,"[4]; E. faecium 7422c.C64A (M, eep-mutant)",1.95 mg/mL
same,Lysozyme MIC,[4]; E. faecium E7422 (WT),15.63 mg/mL
same,Lysozyme MIC,"[4]; E. faecium P21 (WT), twofold dilutions of lysozyme",15.63 mg/mL
same,Lysozyme MIC,"[4]; E. faecium P21c.G716A (M, eep-mutant)",0.98 mg/mL
same,Lysozyme MIC,"[4]; E. faecium P21c.ins7 (M, eep-mutant)",0.98 mg/mL
same,Lysozyme MIC,"[4]; E. faecium P21c.ins23 (M, eep-mutant)",0.98 mg/mL
same,Lysozyme MIC,"[4]; E. faecium P21c.ins43 (M, eep-mutant)",0.98 mg/mL
same,"Lysozyme MIC, wildtype strains",[4]; wildtype strains P21 and E7422,15.63 mg/mL
"MLAKIKAMIKKFPNPYTLAAKLTTYEINWYKQQYGRYPWERPVA [EntEJ97, enterocin EJ97]",MIC in plasma after 8 h,[1]; average of three experiments,0.78 µg/mL
same,MIC in plasma at 48 h,[1]; average of three experiments,1.56 µg/mL
same,MIC in saline after 8 h,[1]; average of three experiments,0.39 µg/mL
same,MIC in saline at 48 h,[1]; average of three experiments,0.78 µg/mL
same,MIC in blood after 8 h,[1]; average of three experiments,1.56 µg/mL
same,MIC in blood at 48 h,[1]; average of three experiments,3.125 µg/mL
same,MIC in blood compared to saline (fold higher),[1]; 37°C,2 ×
same,Visual haemolysis (redness of supernatant compared to saline),human erythrocytes,did not cause haemolysis
same,Haemolysis of erythrocytes,human erythrocytes,non-haemolytic
same,Effect of autoclaving on MIC,[5],did not affect
same,MIC against cells from resistant colonies,[3],above 25 μg/ml
same,MIC of EntEJ97,"E. faecalis; strain 62 (L, laboratory)",1.56 µg/mL
same,MIC of EntEJ97,"E. faecalis; strain D6 (L, laboratory)",0.39 µg/mL
same,MIC of EntEJ97,"E. faecalis; strain HH22 (N, nosocomial)",1.56 µg/mL
same,MIC of EntEJ97,"E. faecalis; strain MMH594 (N, nosocomial)",0.39 µg/mL
same,MIC of EntEJ97,"E. faecalis; strain Merz96 (N, nosocomial)",0.78 µg/mL
same,MIC of EntEJ97,"E. faecalis; strain OG1RF (L, laboratory)",0.78 µg/mL
same,MIC of EntEJ97,"E. faecalis; strain Symbioflor (B, probiotic)",0.39 µg/mL
same,MIC of EntEJ97,"E. faecalis; strain T3 (N, nosocomial)",0.39 µg/mL
same,MIC of EntEJ97,"E. faecalis; strain TX0104 (N, nosocomial)",0.39 µg/mL
same,MIC of EntEJ97,"E. faecalis; strain V583 (N, nosocomial; carries EntEJ97 immunity gene)",>25 µg/mL
